Test results taken from patent US6753176B2, “Aggrecan degrading metallo proteases” (Bristol-Myers Squibb Company, priority 1997, dated 2004).
Entries after “also recorded” stand apart in the source; their conditions may differ.

Tests used:
[1] = test system: ADMP; assay: ADMP (aggrecanase) activity: cleavage of purified bovine aggrecan monomers at Glu373-Ala374, BC-3 neoepitope antibody Western; format: biochemical
Description: ADMPs were detected at this point by their ability to cleave purified bovine aggrecan monomers isolated from bovine nasal cartilage by the following procedure: Aggrecan was extracted from the cartilage by stirring at 4° C. for 48 hours in 10 volumes of 4M guanidine-HCl in 0.05 M sodium acetate, pH 5.8, containing the protease inhibitors, 0.01M EDTA (EDTA is ethylenediaminetetraacetic acid), 0.1M 6-aminohexanoic acid, 2 mM PMSF and 0.05M benzamidine HCl. Aggrecan monomers were isolated by equilibrium density gradient centrifugation in cesium chloride [Hascall, V. C. and Sajdera, S. W. (1969) J. Biol. Chem. 244, 2384-2396.] and the bottom of this gradient (d>1.54 g/ml) containing the aggrecan monomers, was dialyzed at 4° C. against water and lyophilized.
These aggrecan monomers (500 nM) were incubated at 37° C. for at least 4 hr with ADMPs eluted from the Macro S support column in a final volume of 200 ul in Buffer B (Buffer B contains 50 mM Tris, pH 7.6, containing 0.1 M NaCl and 10 mM CaCl2), quenched with 20 mM EDTA and analyzed for aggrecan fragments produced exclusively by cleavage at the Glu^373-Ala^374 bond within the aggrecan core protein using the monoclonal antibody, BC-3 (Hughes, C. E., et al., Biochem. J. 306:799-804, 1995). This antibody recognizes aggrecan fragments with the N-terminal sequence A^374RGSVIL . . . , generated upon cleavage by ADMPs. The BC-3 antibody recognizes this neoepitope only when it is the N-terminus and not when it is present internally within aggrecan fragments or within the intact aggrecan core protein. […]
After digestion, the samples were precipitated with 5 volumes of acetone and reconstituted in an appropriate volume of SDS-PAGE sample buffer, loaded on 4-12% gradient gels and then separated by SDS-PAGE under non reducing conditions, transferred overnight to nitrocellulose and immunolocated with 1:1000 dilution of the monoclonal antibody BC-3. […] BC-3-reactive aggrecan fragments were then quantified by scanning densitometry.

[2] = test system: matrix metalloproteinases; assay: Inhibition of matrix metalloproteinases; format: biochemical
[3] = target: T1, ADMP-1 (Bos taurus, UniProt Q9TT93); assay: Binding of 67 kDa ADMP-1 doublet to aggrecanase-inhibitor hydroxamate affinity resin in the presence of inhibitor; set-up: species or system bovine
T1 construct: from tissue; host or cells: conditioned medium of IL-1-stimulated bovine nasal cartilage, purified over Macro S, gelatin-agarose and TIMP-1/protein A
T1 sequence (Q9TT93 213-839): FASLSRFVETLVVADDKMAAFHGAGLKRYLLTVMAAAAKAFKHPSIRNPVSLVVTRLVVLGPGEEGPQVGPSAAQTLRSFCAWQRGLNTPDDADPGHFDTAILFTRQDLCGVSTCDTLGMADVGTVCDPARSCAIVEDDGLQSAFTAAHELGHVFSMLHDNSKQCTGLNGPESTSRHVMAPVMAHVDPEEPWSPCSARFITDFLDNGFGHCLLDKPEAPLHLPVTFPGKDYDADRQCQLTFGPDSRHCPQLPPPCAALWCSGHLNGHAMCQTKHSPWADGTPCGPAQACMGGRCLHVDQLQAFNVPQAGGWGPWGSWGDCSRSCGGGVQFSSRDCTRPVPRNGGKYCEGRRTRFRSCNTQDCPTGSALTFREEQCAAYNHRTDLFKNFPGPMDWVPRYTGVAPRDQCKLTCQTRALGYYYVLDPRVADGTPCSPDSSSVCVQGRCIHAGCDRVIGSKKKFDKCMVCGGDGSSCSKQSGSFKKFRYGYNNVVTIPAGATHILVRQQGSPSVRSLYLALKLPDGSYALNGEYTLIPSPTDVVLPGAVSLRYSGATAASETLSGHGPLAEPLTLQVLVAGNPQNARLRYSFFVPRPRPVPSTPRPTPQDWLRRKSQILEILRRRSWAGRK
Excerpt: An ADMP-inhibitor hydroxamate affinity resin was produced in the following manner. POROS 20-NH perfusive chromatographic media (Perseptive Biosystems), a highly crosslinked poly(styrene divinylbenzene) polymer, was mixed overnight with four equivalents of Fmoc-beta-alanine, four equivalents HBTU (O-Benzotriazole-N,N,N′,N′-tetramethyl-uronium hexafluorophosphate), and eight equivalents DIEA (N,N diisopropylethylamine) in DMF (dimethylformamide). The resin was rinsed several times with DMF, then the FMOC group was removed with 20% piperidine/DMF. This coupling/deprotecting scheme was repeated three more times, resulting in four beta-alanine residues coupled to the resin. After the final piperidine deprotection, 1.5 equivalents of a t-butyl protected hydroxamic acid capable of inhibiting ADMP activity was coupled with 1.5 equivalents HBTU and 3 equivalents DIEA in DMF. After rinsing with DMF and CH2Cl2, the t-butyl group was removed by mixing overnight with TFA (trifluoroacetic acid), leaving the hydroxamic acid. The resin was thoroughly rinsed with CH2Cl2 and dried under vacuum.
The eluate from the protein A column was neutralized with 1 M Tris base to pH 7.5 and then incubated for 2 hours with the aggrecanase-inhibitor hydroxamate resin at a ratio of 1 mg resin for every 1 ml of eluate. […]

Compound: CNC(=O)[C@H]1CCCNN1C(=O)[C@@H](CC(C)C)[C@@H](C)C(=O)NO [Compound A, N3-methyl-(3R)-2-[(2S)-2-[(1R)-2-(hydroxyamino)-1-methyl-2-oxoethyl]-4-methylpentanoyl]hexahydro-3-pyridazinecarboxamide]
- inhibition of ADMP activity [1]: ineffective; also recorded: inactive
- inhibition of matrix metalloproteinases [2]: broad spectrum inhibitor; also recorded: potent inhibitor
- binding of 67 kDa ADMP-1 to the affinity resin ([3]; compound present during affinity purification): not affected

Compound: CNC(=O)[C@@H]1CCCCNC(=O)CC[C@H](C(=O)NO)[C@H](CC(C)C)C(=O)N1 [Compound B, (2S,11S, 12S)-12-isobutyl-2-[(methylamino)carbonyl]-11[(hydroxylamino)carbonyl]-8,13-dioxo-1,7-diazacyclotridecane]
- inhibition of ADMP activity [1]: potent ADMP inhibitor
- binding of 67 kDa ADMP-1 doublet to aggrecanase-inhibitor hydroxamate resin ([3]; 10 uM compound included during affinity purification): blocked

Compound: tissue inhibitor of metalloproteinases-1 [TIMP-1]
- inhibition of ADMP activity [1]: inhibited
